Some test systems named below: OVCAR-5; SF-539; KM-20L2; SK-MEL-5; 786-0; ACHN; M14; SF-295; HT-29; CAKI-1; SK-MEL-2; OVCAR-8; SN12C; MDA-N; OVCAR-3; LOX IMVI; SR; PC-3; MCF7; CCRF-CEM.
Common to all, as to experiment: inhibition of tumour cell growth, NCI panel, 48 h

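Each compound was tested at five concentrations against cells in 96-well plates for 48 hours. GI50 = concentration required for 50% inhibition of growth.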 The source made the active and inactive calls. No stated cut-off is given here; in the data, active = GI50 up to about 1.1 µM and inactive = higher. Where only a bound is given, the exact number is not on record here.

For `Brc1ccc(N2C[N+](c3ccc(Br)cc3)=NC(c3ccccc3)=N2)cc1`, the GI50 in the experiment on OVCAR-5 is 16.4 µM (inactive); with SF-539, 15.8 µM (inactive); with KM-20L2, 18.2 µM (inactive); in the experiment on SK-MEL-5 it was 16 µM (inactive); with 786-0 it was 16 µM (inactive); with ACHN, 13.6 µM (inactive). For the same compound, the GI50 with M14 was 13.4 µM (inactive); in the experiment with SF-295, 15.5 µM (inactive); in the experiment with HT-29, 14.1 µM (inactive); in the experiment with CAKI-1, 18.1 µM (inactive); with SK-MEL-2, 17 µM (inactive); with OVCAR-8 it was 21.9 µM (inactive). The GI50 in the experiment with SN12C is 19 µM (inactive).
`COc1ccc(-c2nc3ccc(C)cc3o2)c(OC)c1`: the GI50 in the experiment on MDA-N is 23.9 µM (inactive); in the experiment with OVCAR-5 it was 14.9 µM (inactive); with OVCAR-3, 15.7 µM (inactive); in the experiment with SF-539, 20 µM (inactive); in the experiment with LOX IMVI, 16.6 µM (inactive); in the experiment with SR it was 14.3 µM (inactive). The GI50 is 24.3 µM (inactive) in the experiment on PC-3; 30 µM (inactive) in the experiment with MCF7; 19.3 µM (inactive) with SK-MEL-5; 21.4 µM (inactive) with 786-0; 33 µM (inactive) in the experiment with ACHN; 18.2 µM (inactive) in the experiment with M14. Also, the GI50 was 19.9 µM (inactive) in the experiment with SF-295; 5.28 µM (inactive) in the experiment on HT-29; 29.8 µM (inactive) with CAKI-1; 24.1 µM (inactive) with CCRF-CEM; 24.6 µM (inactive) with SK-MEL-2; 26.4 µM (inactive) in the experiment with OVCAR-8. For the same compound, the GI50 in the experiment with SN12C is 26.5 µM (inactive).
Turning to `CN1C(=O)C23CC4=CC=CC(O)C4N2C(=O)C1(CO)SS3` (stereo unspecified), the GI50 in the experiment on MDA-N is 0.188 µM (active); in the experiment with OVCAR-5, 0.0526 µM (active); with OVCAR-3 it was 0.199 µM (active); in the experiment with SF-539, 0.0204 µM (active); with LOX IMVI, 0.17 µM (active); in the experiment with SR it was 0.0291 µM (active). The GI50 is 0.167 µM (active) in the experiment with PC-3; 0.16 µM (active) in the experiment on MCF7; 0.173 µM (active) in the experiment with SK-MEL-5; 0.084 µM (active) in the experiment with 786-0; 0.174 µM (active) with ACHN; 0.0506 µM (active) in the experiment on M14. The GI50 is 0.181 µM (active) in the experiment with SF-295; 0.0188 µM (active) in the experiment with HT-29; 0.308 µM (active) in the experiment on CAKI-1; 0.0205 µM (active) with CCRF-CEM; 0.22 µM (active) in the experiment with SK-MEL-2; 0.0611 µM (active) in the experiment with OVCAR-8. In addition, the GI50 in the experiment on SN12C was 0.0705 µM (active).
As for `NC(=O)SCC(=O)Nc1ccc2cccc3c2c1CC3`, the GI50 is 21.8 µM (inactive) in the experiment with MDA-N; 17.7 µM (inactive) in the experiment with OVCAR-5; 31.6 µM (inactive) in the experiment with OVCAR-3; 15.1 µM (inactive) with SF-539; 6.75 µM (inactive) with LOX IMVI; 8.71 µM (inactive) in the experiment on SR. The GI50 with PC-3 is 4.4 µM (inactive); in the experiment with MCF7, 11 µM (inactive); in the experiment with SK-MEL-5 it was 26.8 µM (inactive); with 786-0 it was 18.9 µM (inactive); in the experiment with ACHN, 22.8 µM (inactive); with M14, 21.8 µM (inactive). Further, the GI50 was 21.1 µM (inactive) in the experiment on SF-295; 29.7 µM (inactive) in the experiment on HT-29; 42.1 µM (inactive) with CAKI-1; 8.02 µM (inactive) in the experiment with CCRF-CEM; 17.1 µM (inactive) in the experiment on SK-MEL-2; 63.4 µM (inactive) in the experiment on OVCAR-8. The GI50 with SN12C is 21.5 µM (inactive).
Turning to `CC1(C)N=C(N)N=C(N)N1c1ccc(CCCCc2ccc(Cl)cc2Cl)cc1`, the GI50 in the experiment on MDA-N is 0.982 µM (active); in the experiment with OVCAR-5, 4.31 µM (inactive); in the experiment with OVCAR-3, 0.431 µM (active); with SF-539, 0.929 µM (active); with LOX IMVI, 0.417 µM (active); in the experiment on SR it was 0.735 µM (active). Besides, the GI50 in the experiment with PC-3 was 0.418 µM (active); with MCF7, 0.453 µM (active); in the experiment on SK-MEL-5 it was 1.12 µM (inactive); with 786-0 it was 0.5 µM (active); with ACHN, 4.57 µM (inactive); with M14, 0.914 µM (active). Moreover, the GI50 is 0.893 µM (active) in the experiment on SF-295; 0.546 µM (active) in the experiment with HT-29; 2.05 µM (inactive) with CAKI-1; 0.736 µM (active) in the experiment with CCRF-CEM; 0.887 µM (active) with SK-MEL-2; 0.598 µM (active) in the experiment on OVCAR-8. Moreover, in the experiment on SN12C, the GI50 was 0.502 µM (active).
With `N#CC(C#N)=NNc1ccc2cn[nH]c2c1`, the GI50 with MDA-N was 43.9 µM (inactive); with OVCAR-5 it was > 100 µM (inactive); in the experiment on OVCAR-3 it was 23.9 µM (inactive); in the experiment with SF-539, 70.8 µM (inactive); in the experiment on LOX IMVI, 31.4 µM (inactive); with SR, 22.6 µM (inactive). For the same compound, the GI50 with PC-3 was > 100 µM (inactive); with MCF7 it was 31.1 µM (inactive); in the experiment with SK-MEL-5 it was 74.5 µM (inactive); in the experiment on 786-0 it was 43.6 µM (inactive); in the experiment with ACHN, 33.1 µM (inactive); with M14 it was 35.6 µM (inactive). Besides, the GI50 was > 100 µM (inactive) in the experiment with SF-295; 91.2 µM (inactive) in the experiment with HT-29; 29.6 µM (inactive) in the experiment on CAKI-1; 13.6 µM (inactive) with CCRF-CEM; > 100 µM (inactive) with SK-MEL-2; 51.4 µM (inactive) in the experiment with OVCAR-8. Besides, the GI50 in the experiment with SN12C is 40.6 µM (inactive).
For `CSc1nc(SC)c2c(C)c(Br)[nH]c2n1`, the GI50 in the experiment on MDA-N was > 100 µM (inactive); with OVCAR-5, > 100 µM (inactive); in the experiment with OVCAR-3, > 100 µM (inactive); with SF-539 it was 54.6 µM (inactive); with LOX IMVI it was > 100 µM (inactive); in the experiment on SR it was > 100 µM (inactive). The GI50 is > 100 µM (inactive) with PC-3; 30.9 µM (inactive) in the experiment with MCF7; > 100 µM (inactive) in the experiment on SK-MEL-5; > 100 µM (inactive) in the experiment on 786-0; > 100 µM (inactive) in the experiment on ACHN; > 100 µM (inactive) with M14. For the same compound, the GI50 in the experiment with SF-295, in the experiment on HT-29, in the experiment on CAKI-1, in the experiment with CCRF-CEM, in the experiment with SK-MEL-2 and in the experiment with OVCAR-8 was > 100 µM (inactive) each time. For the same compound, the GI50 in the experiment on SN12C was > 100 µM (inactive).
For `Clc1ccc(-c2nn3c(CCCCCCCCc4nnc5sc(-c6ccc(Cl)cc6)nn45)nnc3s2)cc1`, the GI50 in the experiment with MDA-N is 18.2 µM (inactive); in the experiment on OVCAR-5, 36.3 µM (inactive); in the experiment on OVCAR-3, 19.8 µM (inactive); in the experiment on SF-539 it was 19.9 µM (inactive); with LOX IMVI, 7.24 µM (inactive); in the experiment on SR, 17.1 µM (inactive). Moreover, the GI50 with PC-3 was 11.5 µM (inactive); in the experiment with MCF7, 5.81 µM (inactive); in the experiment on SK-MEL-5, 13.8 µM (inactive); in the experiment with 786-0 it was 20.1 µM (inactive); in the experiment with ACHN, 30.1 µM (inactive); in the experiment on M14 it was 18.7 µM (inactive). The GI50 was 17.6 µM (inactive) with SF-295; 12.4 µM (inactive) with HT-29; 16.3 µM (inactive) in the experiment with CAKI-1; 11.8 µM (inactive) with CCRF-CEM; 29.8 µM (inactive) with SK-MEL-2; 18.7 µM (inactive) with OVCAR-8. In addition, the GI50 in the experiment with SN12C is 17.5 µM (inactive).
